Assays:
estrogen receptors = conditions: in vitro; cited from earlier work
[1] = biological target: T1, sex hormone binding globulin (SHBG) (Homo sapiens, UniProt P04278); conditions: in vitro; cited from earlier work
T1 sequence (P04278 30-402): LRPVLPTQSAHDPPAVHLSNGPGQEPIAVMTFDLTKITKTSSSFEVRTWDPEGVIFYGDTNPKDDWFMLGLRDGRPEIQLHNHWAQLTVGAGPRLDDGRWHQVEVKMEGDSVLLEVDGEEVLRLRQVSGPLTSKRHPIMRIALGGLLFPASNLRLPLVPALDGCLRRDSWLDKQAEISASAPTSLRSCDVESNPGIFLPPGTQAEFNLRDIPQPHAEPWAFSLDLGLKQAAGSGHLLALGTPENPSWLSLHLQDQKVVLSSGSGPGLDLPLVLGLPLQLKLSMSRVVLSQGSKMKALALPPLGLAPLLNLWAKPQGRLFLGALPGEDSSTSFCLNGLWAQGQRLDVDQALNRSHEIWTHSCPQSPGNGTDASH

[2] = humans, cited from earlier work
[3] = Randomized, open-label, two-period, cross-over pharmacokinetic study, sublingual vs oral estetrol tablet; type: in vivo, healthy female volunteers; conditions: 10 mg estetrol sublingual vs oral tablet
Protocol: A randomized, open-label, two-period, cross-over, pharmacokinetic study is conducted to compare sublingual bioavailability of 10 mg estetrol administered in one 80 mg tablet with oral availability of estetrol contained in a 83 mg tablet containing 10 mg estetrol. These tablets are administered sublingually and orally to healthy female volunteers under fasting conditions.
Ten healthy female subjects are selected on the basis of the following criteria: age of 45-65 years (inclusive), nonsmokers or past smokers (at least 6 months before dosing), body-mass index (BMI)=18.5 to 30 kg/m^2 (inclusive at the time of the screening).
At the start of the first and the second period of the study, between 07:00 am and 07:28 am, 5 subjects receive a single dose of the sublingual formulation of estetrol by administering one estetrol tablet (tablet weight 80 mg; 10 mg estetrol) and 5 subjects receive a single oral dose of the oral estetrol formulation by administering one estetrol tablet (tablet weight 83 mg; 10 mg estetrol), ingested together with 200 ml water. […]
The estetrol concentration in the collected blood samples is determined by means of HPLC/MS/MS. The concentrations of glucuronided estetrol (D-ring) in the urine samples is also determined with the help of HPLC/MS/MS.

[4] = tested on: human breast cancer cells; conditions: in vitro; cited from earlier work
DMBA mammary tumour = conditions: extent and dose level similar to tamoxifen and to ovariectomy; cited from earlier work
production of SHBG = conditions: in vitro; cited from earlier work
[5] = tested on: vagina, uterus, body weight, bone mass, bone strength, hot flushes, ovulation; conditions: dose-dependent; cited from earlier work

Structure (SMILES): C[C@]12CC[C@@H]3c4ccc(O)cc4CC[C@H]3[C@@H]1[C@@H](O)[C@@H](O)[C@@H]2O [estetrol, 1,3,5 (10)-estratrien-3,15α,16α,17β-tetrol]
- binding to estrogen receptors, selectivity (estrogen receptors): binds highly selective to the estrogen receptors with preference for the ERα form
- binding to SHBG [1]: does not bind
- oral bioavailability ([2]; oral): high and dose-proportional
- terminal elimination half-life [2]: about 28 hours
- impact on a liver function parameter [3]: less impact on a liver function parameter
- effect in the presence of 17β-estradiol [4]: anti-estrogenic effect
- tumour development (DMBA mammary tumour): prevented tumour development
- stimulation of production of SHBG (production of SHBG): does not stimulate
- estrogenic effects in rat models [5]: estrogenic effects on the vagina, the uterus (both myometrium and endometrium), body weight, bone mass, bone strength, hot flushes and on ovulation (inhibition)
